Test results published in US20240101576A1, “HETEROCYCLIC INHIBITORS OF EGFR AND/OR HER2, FOR USE IN THE TREATMENT OF CANCER” (Scorpion Therapeutics, Inc., priority 2020, published 2024).

Columns and labels:
Format in all cases: cell-based
EGFR WT (Ba/F3 cells) = target: T1, EGFR WT (Ba/F3 cells) (Homo sapiens, UniProt P00533); test: Inhibitor activity on EGFR-dependent cell growth (CellTiter-Glo, 72 h), Ba/F3 EGFR WT; conditions: read-out: BaF3 WT IC50
T1 construct: expressed in transfected cells; host or cells: Ba/F3 (murine pro-B cells), retroviral transduction, puromycin selection, maintained with EGF
T1 sequence (P00533 25-1210): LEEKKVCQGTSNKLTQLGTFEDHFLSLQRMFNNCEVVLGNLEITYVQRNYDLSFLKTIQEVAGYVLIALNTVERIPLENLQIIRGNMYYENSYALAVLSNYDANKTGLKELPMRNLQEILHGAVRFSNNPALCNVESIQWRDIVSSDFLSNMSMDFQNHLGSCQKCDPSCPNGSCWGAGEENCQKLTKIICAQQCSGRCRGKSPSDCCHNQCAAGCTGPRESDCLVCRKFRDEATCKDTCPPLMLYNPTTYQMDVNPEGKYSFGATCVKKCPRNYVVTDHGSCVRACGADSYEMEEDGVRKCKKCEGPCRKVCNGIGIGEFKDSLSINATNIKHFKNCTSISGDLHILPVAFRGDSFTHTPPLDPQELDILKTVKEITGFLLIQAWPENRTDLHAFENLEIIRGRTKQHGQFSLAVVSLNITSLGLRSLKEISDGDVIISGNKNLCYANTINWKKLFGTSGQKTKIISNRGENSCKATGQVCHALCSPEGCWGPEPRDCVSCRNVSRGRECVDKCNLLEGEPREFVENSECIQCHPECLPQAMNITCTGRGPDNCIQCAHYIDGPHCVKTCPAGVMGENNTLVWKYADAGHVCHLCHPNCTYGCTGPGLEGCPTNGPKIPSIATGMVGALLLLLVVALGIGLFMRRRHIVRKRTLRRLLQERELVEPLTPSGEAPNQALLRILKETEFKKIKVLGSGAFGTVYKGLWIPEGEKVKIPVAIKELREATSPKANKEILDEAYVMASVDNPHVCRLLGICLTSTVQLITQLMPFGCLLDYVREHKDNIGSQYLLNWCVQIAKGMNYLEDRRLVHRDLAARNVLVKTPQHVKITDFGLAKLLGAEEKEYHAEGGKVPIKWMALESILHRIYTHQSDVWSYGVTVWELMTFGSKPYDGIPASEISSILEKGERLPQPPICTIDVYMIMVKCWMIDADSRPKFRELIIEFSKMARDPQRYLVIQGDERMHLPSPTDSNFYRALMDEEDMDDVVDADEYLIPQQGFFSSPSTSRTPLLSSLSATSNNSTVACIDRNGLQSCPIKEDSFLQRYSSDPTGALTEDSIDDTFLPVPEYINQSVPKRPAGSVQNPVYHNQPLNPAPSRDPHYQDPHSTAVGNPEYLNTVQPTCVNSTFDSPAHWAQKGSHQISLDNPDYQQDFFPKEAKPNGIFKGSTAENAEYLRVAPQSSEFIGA
From the text: (§1) Example A. Inhibitor Activity on EGFR-Dependent Cell Growth
(§2) Cell lines are generated by transducing Ba/F3 cells with retroviruses containing vectors with EGFR WT, EGFR L858R, EGFR exon 19del, EGFR L858R/C797S, EGFR exon 20 NPG Ins D770_N771, EGFR exon 20 ASV Ins V769_D770, EGFR exon 20 SVD Ins D770_N771, or EGFR exon 20 FQEA Ins A763_V764 genes and a puromycin selection marker. Transduced cells are selected with puromycin for 7 days and are then be transferred into culture media without Interleukin 3 (IL3). EGFR WT cells are maintained with supplemental EGF. Surviving cells are confirmed to express EGFR by Western blot and maintained as a pool. The IC50 date were included in Table 6 and Table 7.
(§3) 1.1 Cells are harvested from flask into cell culture medium and the cell number counted.
(§4) 1.2 Cells are diluted with culture medium to the desired density and 40 μL of cell suspension is added into each well of 384-well cell culture plate and the seeding density is 800 (FQEA, exon 19del), 600 (WT, NPG, L858R/C797S), or 400 (ASV, SVD, L858R) cells/well.
(§5) 2 Compound Preparation and Treatment
(§6) 2.1 Test compounds are dissolved to 10 mM in a DMSO stock solution. 45 μL of stock solution is transferred to a 384 polypropylene plate (pp-plate). Perform 3-fold, 10-point dilution via transferring 15 μL compound into 30 μL DMSO using a TECAN (EVO200) liquid handler.
(§7) 2.2 Spin plates at room temperature at 1,000 RPM for 1 minute.
(§8) 2.3 Transfer 120 nL of diluted compound from compound source plate into the cell plate.
(§9) 2.4 After compound treatment for 72 hours, perform CTG detection for compound treatment plates as described in “Detection” section.
(§10) 3.1 Plates are removed from incubators and equilibrated at room temperature for 15 minutes.
(§11) 3.2 Thaw the CellTiter Glo reagents and allow to equilibrate to room temperature before the experiment.
(§12) 3.3 Add 40 μL of CellTiter-Glo reagent into each well (at 1:1 to culture medium). Then place the plates at room temperature for 30 min followed by reading on EnVision.
(§13) 4.1 Inhibition activity is calculated following the formula below:
(§14) % Inhibition=100×(LumHC−LumSample)/(LumHC−LumLC) • where HC is obtained from cells treated with 0.1% DMSO only; and LC is obtained from culture medium only.
(§15) 4.2 2. Calculate the IC50 by fitting the Curve using Xlfit (v5.3.1.3), equation 201.
(§16) Y=Bottom+(Top−Bottom)/(1+10^((Log IC50−X)*HillSlope))

[1] = target: T2, EGFR exon 20 ASV Ins V769_D770 (Ba/F3 cells) (Homo sapiens, UniProt P00533, INS769ASV); test: Inhibitor activity on EGFR-dependent cell growth (CellTiter-Glo, 72 h), Ba/F3 EGFR exon 20 ASV Ins; conditions: read-out: BaF3 ASV IC50
T2 construct: expressed in transfected cells; host or cells: Ba/F3 (murine pro-B cells), retroviral transduction, puromycin selection, IL3-independent pool
T2 sequence (P00533 with tags, fused parts or gaps INS769ASV): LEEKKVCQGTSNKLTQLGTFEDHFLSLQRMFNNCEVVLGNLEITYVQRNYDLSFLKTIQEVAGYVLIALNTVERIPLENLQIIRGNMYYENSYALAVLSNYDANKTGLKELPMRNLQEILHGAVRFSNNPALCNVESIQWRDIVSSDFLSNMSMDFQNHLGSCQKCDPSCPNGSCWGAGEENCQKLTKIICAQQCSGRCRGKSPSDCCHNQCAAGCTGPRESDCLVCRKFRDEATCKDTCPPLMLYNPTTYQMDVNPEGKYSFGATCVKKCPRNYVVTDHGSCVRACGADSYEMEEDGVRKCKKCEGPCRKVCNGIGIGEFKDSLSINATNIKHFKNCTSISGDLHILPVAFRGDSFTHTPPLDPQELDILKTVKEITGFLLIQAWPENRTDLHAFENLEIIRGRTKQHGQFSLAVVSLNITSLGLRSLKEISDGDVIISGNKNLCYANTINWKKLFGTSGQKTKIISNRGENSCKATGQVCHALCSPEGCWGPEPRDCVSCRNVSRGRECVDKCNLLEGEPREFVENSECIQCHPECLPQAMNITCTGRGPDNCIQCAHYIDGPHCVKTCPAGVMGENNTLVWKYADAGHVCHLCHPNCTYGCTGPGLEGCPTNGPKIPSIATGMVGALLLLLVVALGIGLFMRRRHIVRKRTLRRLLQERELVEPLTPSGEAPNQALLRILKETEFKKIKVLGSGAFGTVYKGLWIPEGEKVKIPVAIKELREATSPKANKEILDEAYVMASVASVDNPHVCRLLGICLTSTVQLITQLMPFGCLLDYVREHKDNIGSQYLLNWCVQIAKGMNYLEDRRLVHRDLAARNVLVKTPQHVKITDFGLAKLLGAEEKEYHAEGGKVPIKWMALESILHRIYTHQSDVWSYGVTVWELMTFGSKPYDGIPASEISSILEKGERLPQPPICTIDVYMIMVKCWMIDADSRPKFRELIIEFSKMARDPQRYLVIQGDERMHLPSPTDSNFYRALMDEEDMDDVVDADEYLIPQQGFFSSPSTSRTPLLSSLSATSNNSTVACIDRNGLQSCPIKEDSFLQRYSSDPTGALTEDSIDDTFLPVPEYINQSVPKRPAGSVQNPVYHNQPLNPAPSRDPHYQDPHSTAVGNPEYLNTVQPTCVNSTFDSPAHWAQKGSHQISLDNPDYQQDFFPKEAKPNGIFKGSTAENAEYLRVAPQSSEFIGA
From the text: as §1, §2, §3, §4, §5, §6, §7, §8, §9, §10, §11, §12, §13, §14, §15, §16

[2] = target: T3, EGFR exon 20 SVD Ins D770_N771 (Ba/F3 cells) (Homo sapiens, UniProt P00533, INS770SVD); test: Inhibitor activity on EGFR-dependent cell growth (CellTiter-Glo, 72 h), Ba/F3 EGFR exon 20 SVD Ins; conditions: read-out: BaF3 SVD IC50
T3 construct: expressed in transfected cells; host or cells: Ba/F3 (murine pro-B cells), retroviral transduction, puromycin selection, IL3-independent pool
T3 sequence (P00533 with tags, fused parts or gaps INS770SVD): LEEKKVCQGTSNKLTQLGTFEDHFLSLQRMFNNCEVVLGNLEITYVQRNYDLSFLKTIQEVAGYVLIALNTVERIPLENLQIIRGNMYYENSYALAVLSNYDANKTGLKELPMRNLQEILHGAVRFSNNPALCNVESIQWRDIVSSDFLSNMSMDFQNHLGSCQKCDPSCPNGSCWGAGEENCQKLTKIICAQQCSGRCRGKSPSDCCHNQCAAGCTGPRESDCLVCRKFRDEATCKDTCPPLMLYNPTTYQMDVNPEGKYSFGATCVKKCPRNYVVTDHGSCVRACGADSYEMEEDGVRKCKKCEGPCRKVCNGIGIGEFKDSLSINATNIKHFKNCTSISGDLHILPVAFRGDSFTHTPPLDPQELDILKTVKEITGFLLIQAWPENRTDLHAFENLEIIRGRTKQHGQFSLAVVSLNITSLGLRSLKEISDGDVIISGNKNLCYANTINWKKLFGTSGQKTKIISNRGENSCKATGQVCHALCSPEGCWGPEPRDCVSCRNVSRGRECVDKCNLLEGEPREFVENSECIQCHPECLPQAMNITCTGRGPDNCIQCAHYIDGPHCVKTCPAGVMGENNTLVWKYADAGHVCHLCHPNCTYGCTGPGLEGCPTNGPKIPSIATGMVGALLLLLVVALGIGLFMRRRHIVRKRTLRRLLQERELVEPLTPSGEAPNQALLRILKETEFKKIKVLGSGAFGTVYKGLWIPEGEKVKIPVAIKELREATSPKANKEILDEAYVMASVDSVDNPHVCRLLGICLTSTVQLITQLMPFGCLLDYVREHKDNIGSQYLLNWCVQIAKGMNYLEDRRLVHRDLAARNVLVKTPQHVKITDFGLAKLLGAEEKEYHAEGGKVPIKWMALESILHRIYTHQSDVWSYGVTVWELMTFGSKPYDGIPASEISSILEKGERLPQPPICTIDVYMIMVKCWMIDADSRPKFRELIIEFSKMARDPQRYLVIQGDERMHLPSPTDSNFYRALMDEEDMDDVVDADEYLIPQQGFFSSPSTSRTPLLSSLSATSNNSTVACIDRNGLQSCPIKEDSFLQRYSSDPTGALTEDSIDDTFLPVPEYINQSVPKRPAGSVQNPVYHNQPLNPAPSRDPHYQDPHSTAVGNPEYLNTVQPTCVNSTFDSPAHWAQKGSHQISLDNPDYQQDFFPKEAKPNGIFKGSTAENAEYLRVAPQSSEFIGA
From the text: as §1, §2, §3, §4, §5, §6, §7, §8, §9, §10, §11, §12, §13, §14, §15, §16

[3] = target: T4, EGFR exon 20 FQEA Ins A763_V764 (Ba/F3 cells) (Homo sapiens, UniProt P00533, INS763FQEA); test: Inhibitor activity on EGFR-dependent cell growth (CellTiter-Glo, 72 h), Ba/F3 EGFR exon 20 FQEA Ins; conditions: read-out: BaF3 FQEA IC50
T4 construct: expressed in transfected cells; host or cells: Ba/F3 (murine pro-B cells), retroviral transduction, puromycin selection, IL3-independent pool
T4 sequence (P00533 with tags, fused parts or gaps INS763FQEA): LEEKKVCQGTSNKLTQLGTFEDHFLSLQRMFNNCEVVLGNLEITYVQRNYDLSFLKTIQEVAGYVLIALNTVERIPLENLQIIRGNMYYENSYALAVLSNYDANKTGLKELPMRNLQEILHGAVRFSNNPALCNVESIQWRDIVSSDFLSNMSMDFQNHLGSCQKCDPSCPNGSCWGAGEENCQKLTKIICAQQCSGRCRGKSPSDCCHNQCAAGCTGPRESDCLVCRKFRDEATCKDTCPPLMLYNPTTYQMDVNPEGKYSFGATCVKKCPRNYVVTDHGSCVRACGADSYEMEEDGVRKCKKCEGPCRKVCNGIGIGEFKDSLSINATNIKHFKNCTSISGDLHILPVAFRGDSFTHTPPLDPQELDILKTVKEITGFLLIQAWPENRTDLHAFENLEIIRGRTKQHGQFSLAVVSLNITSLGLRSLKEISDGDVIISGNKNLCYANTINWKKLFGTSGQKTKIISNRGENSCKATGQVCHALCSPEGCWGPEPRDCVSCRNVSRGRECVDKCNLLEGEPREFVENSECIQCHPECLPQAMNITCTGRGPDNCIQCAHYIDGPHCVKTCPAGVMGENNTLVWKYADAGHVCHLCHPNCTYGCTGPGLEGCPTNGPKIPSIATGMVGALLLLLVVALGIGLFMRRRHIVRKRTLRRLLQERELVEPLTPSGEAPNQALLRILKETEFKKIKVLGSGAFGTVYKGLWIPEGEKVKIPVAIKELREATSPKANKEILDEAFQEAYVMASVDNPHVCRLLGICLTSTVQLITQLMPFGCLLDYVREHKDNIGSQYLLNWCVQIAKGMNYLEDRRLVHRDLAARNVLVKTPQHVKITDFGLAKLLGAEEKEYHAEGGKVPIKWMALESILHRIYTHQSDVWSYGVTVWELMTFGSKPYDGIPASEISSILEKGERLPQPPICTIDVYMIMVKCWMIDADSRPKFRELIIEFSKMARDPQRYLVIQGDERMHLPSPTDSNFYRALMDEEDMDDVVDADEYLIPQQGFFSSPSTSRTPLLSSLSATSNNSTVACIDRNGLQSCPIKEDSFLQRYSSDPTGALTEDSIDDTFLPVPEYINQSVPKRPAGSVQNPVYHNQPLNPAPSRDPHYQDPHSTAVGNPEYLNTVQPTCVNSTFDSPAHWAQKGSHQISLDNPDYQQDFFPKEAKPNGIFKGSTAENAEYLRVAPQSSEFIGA
From the text: as §1, §2, §3, §4, §5, §6, §7, §8, §9, §10, §11, §12, §13, §14, §15, §16

| Compound | IC50 (EGFR WT (Ba/F3 cells)) [nM] | IC50 [1] [nM] | IC50 [2] [nM] | IC50 [3] [nM] |
| --- | --- | --- | --- | --- |
| COc1c(Cl)cccc1Nc1c(-c2ccncc2F)[nH]c2c1C(=O)NCC2C[C@H]1CO[C@H](CN(C)C)CO1 (single isomer, unassigned) [Compound 565, (7R*)-3-[(3-chloro-2-methoxyphenyl)amino]-7-{[(2S,5R)-5-[(dimethylamino)methyl]-1,4-dioxan-2-yl]methyl}-2-(3-fluoropyridin-4-yl)-1H,5H,6H,7H-pyrrolo[3,2-c]pyridin-4-one] | > 1000 | 100 to 1000 |  |  |
| COC[C@@H]1CNC(=O)c2c1[nH]c(-c1ccnc3ccc(OC)nc13)c2Nc1cccc(Cl)c1OC (single isomer, unassigned) [Compound 765] | < 100 | < 100 | < 100 | < 100 |
| COc1c(Cl)cccc1Nc1c(-c2ccnc3ccc(OC4(C)CC4)nc23)[nH]c2c1C(=O)NC[C@H]2C (single isomer, unassigned) [Compound 774] | < 100 | < 100 | < 100 | < 100 |
| COc1c(Cl)cccc1Nc1c(-c2ccnc3ccc(OC4(C)CC4)nc23)[nH]c2c1C(=O)NC[C@@H]2C (single isomer, unassigned) [Compound 775] | < 100 | < 100 | < 100 | < 100 |
| COc1c(Cl)cccc1Nc1c(-c2ccncc2F)[nH]c2c1C(=O)NC[C@@]21CCOC1 (single isomer, unassigned) [Compound 781] | > 1000 | 100 to 1000 | 100 to 1000 | 100 to 1000 |
| COc1c(Cl)cccc1Nc1c(-c2ccncc2F)[nH]c2c1C(=O)NCC21CCOC1 (single isomer, unassigned) [Compound 782] | > 1000 | 100 to 1000 | 100 to 1000 | 100 to 1000 |
| COc1c(Cl)cccc1Nc1c(-c2ccncc2F)[nH]c2c1C(=O)NCC2CC1CCO1 (single isomer, unassigned) [Compound 783] | > 1000 | < 100 |  | 100 to 1000 |
| COc1c(Cl)cccc1Nc1c(-c2ccncc2F)[nH]c2c1C(=O)NCC2CC1CCO1 (single isomer, unassigned) [Compound 784] | > 1000 | 100 to 1000 |  | 100 to 1000 |
| COc1c(Cl)cccc1Nc1c(-c2ccncc2F)[nH]c2c1C(=O)NCC2CC1CCO1 (single isomer, unassigned) [Compound 785] | 100 to 1000 | < 100 |  | < 100 |
| COc1c(Cl)cccc1Nc1c(-c2ccncc2F)[nH]c2c1C(=O)NCC2CC1CCO1 (single isomer, unassigned) [Compound 786] | 100 to 1000 | < 100 |  | 100 to 1000 |
| COCC[C@@H]1CNC(=O)c2c(Nc3cccc(Cl)c3OC)c(-c3ccncn3)n(C)c21 (single isomer, unassigned) [Compound 796] | > 1000 | > 1000 | > 1000 | > 1000 |
| COCC[C@H]1CNC(=O)c2c(Nc3cccc(Cl)c3OC)c(-c3ccncn3)n(C)c21 (single isomer, unassigned) [Compound 797] | > 1000 | > 1000 | > 1000 | > 1000 |
| CC[C@H]1CNC(=O)c2c1[nH]c(-c1ccnc(N)n1)c2Nc1cccc(Cl)c1OC [189b] | 100 to 1000 | < 100 | < 100 | < 100 |
| COc1ccc2nccc(-c3[nH]c4c(c3Nc3cccc(Cl)c3OC)C(=O)NC[C@@H]4C)c2n1 [310b] | < 100 | < 100 | < 100 | < 100 |
| COCC[C@@H]1CNC(=O)c2c1[nH]c(-c1ccnc(C)n1)c2Nc1cccc(Cl)c1OC [463a] | > 1000 | 100 to 1000 | < 100 | 100 to 1000 |
| COc1c(Cl)cccc1Nc1c(-c2ccncc2F)[nH]c2c1C(=O)NC[C@H]2CC1COC1 [468b] | > 1000 | 100 to 1000 | 100 to 1000 | 100 to 1000 |
| COc1c(F)cccc1Nc1c(-c2ccncc2F)[nH]c2c1C(=O)NC[C@@H]2C[C@@H]1CCO1 [Compound 422b, (7S)-3-[(3-fluoro-2-methoxyphenyl)amino]-2-(3-fluoropyridin-4-yl)-7-[(2R)-oxetan-2-ylmethyl]-1H,5H,6H,7H-pyrrolo[3,2-c]pyridin-4-one] | > 1000 | 100 to 1000 | 100 to 1000 | 100 to 1000 |
| COCC[C@H]1CNC(=O)c2c1[nH]c(-c1ccncn1)c2Nc1cccc(F)c1OC [Compound 447b] | > 1000 | 100 to 1000 | 100 to 1000 | 100 to 1000 |
| COCC[C@@H]1CNC(=O)c2c1[nH]c(-c1ccncc1F)c2Nc1cccc(F)c1OC(F)F [Compound 470, (7R)-3-{[2-(difluoromethoxy)-3-fluorophenyl]amino}-2-(3-fluoropyridin-4-yl)-7-(2-methoxyethyl)-1H,5H,6H,7H-pyrrolo[3,2-c]pyridin-4-one] | 100 to 1000 | < 100 | < 100 | 100 to 1000 |
| COCC[C@H]1CNC(=O)c2c1[nH]c(-c1ccncc1F)c2Nc1cccc(F)c1OC(F)F [Compound 471, (7S)-3-{[2-(difluoromethoxy)-3-fluorophenyl]amino}-2-(3-fluoropyridin-4-yl)-7-(2-methoxyethyl)-1H,5H,6H,7H-pyrrolo[3,2-c]pyridin-4-one] | > 1000 | 100 to 1000 | 100 to 1000 | 100 to 1000 |
| COc1c(Cl)cccc1Nc1c(-c2ccncc2F)[nH]c2c1C(=O)NCC2CCF (stereo not drawn) [Compound 473, 3-[(3-chloro-2-methoxyphenyl)amino]-7-(2-fluoroethyl)-2-(3-fluoropyridin-4-yl)-1H,5H,6H,7H-pyrrolo[3,2-c]pyridin-4-one] | > 1000 | 100 to 1000 | 100 to 1000 | 100 to 1000 |
| COc1c(Cl)cccc1Nc1c(-c2ccncc2F)[nH]c2c1C(=O)NC[C@@H]2CC(N)=O [Compound 474] | > 1000 | > 1000 | > 1000 | > 1000 |
| COC(=O)N1CCC2(CC1)CNC(=O)c1c2[nH]c(-c2ccncc2F)c1Nc1cccc(Cl)c1OC [Compound 479, methyl 3′-[(3-chloro-2-methoxyphenyl)amino]-2′-(3-fluoropyridin-4-yl)-4′-oxo-5′,6′-dihydro-1′H-spiro[piperidine-4,7′-pyrrolo[3,2-c]pyridine]-1-carboxylate] | > 1000 | 100 to 1000 | 100 to 1000 | 100 to 1000 |
| COc1c(Cl)cccc1Nc1c(-c2ccncc2F)[nH]c2c1C(=O)NC[C@H]2CC(=O)N(C)C [Compound 487] | > 1000 | 100 to 1000 | 100 to 1000 | 100 to 1000 |
| COc1c(Cl)cccc1Nc1c(-c2ccncc2F)[nH]c2c1C(=O)NCC2 [compound 410] | > 1000 |  |  | 100 to 1000 |
| COc1c(Cl)cccc1Nc1c(-c2ccncn2)[nH]c2c1C(=O)NCC2 [compound 675, 3-[(3-chloro-2-methoxyphenyl)amino]-2-(pyrimidin-4-yl)-1H,5H,6H,7H-pyrrolo[3,2-c]pyridin-4-one] | > 1000 |  |  | 100 to 1000 |
